The values below come from the Kinase Knowledgebase extract (Sharma et al. 2016).

One may read the IC50 as the concentration at which inhibition is half-maximal. A higher IC50 goes with a need for much substance.

Test [1] deals with PIK3CB (Human) (UniProt P42338). As to the kind of experiment: Enzyme Assay.
The target of test [2] is PIK3CD (Human) (UniProt O00329). As to the kind of experiment: Enzyme Assay.
The target in test [3] is PIK3CG (human) (UniProt P48736). As to the kind of experiment: Enzyme Assay.
For test [4], the target named is PIK3CD (Human) (UniProt O00329). As to the kind of experiment: Cell-Based Assay. The settings on record: raji.

Chain of PIK3CB (Human) (P42338 whole entry, looked up): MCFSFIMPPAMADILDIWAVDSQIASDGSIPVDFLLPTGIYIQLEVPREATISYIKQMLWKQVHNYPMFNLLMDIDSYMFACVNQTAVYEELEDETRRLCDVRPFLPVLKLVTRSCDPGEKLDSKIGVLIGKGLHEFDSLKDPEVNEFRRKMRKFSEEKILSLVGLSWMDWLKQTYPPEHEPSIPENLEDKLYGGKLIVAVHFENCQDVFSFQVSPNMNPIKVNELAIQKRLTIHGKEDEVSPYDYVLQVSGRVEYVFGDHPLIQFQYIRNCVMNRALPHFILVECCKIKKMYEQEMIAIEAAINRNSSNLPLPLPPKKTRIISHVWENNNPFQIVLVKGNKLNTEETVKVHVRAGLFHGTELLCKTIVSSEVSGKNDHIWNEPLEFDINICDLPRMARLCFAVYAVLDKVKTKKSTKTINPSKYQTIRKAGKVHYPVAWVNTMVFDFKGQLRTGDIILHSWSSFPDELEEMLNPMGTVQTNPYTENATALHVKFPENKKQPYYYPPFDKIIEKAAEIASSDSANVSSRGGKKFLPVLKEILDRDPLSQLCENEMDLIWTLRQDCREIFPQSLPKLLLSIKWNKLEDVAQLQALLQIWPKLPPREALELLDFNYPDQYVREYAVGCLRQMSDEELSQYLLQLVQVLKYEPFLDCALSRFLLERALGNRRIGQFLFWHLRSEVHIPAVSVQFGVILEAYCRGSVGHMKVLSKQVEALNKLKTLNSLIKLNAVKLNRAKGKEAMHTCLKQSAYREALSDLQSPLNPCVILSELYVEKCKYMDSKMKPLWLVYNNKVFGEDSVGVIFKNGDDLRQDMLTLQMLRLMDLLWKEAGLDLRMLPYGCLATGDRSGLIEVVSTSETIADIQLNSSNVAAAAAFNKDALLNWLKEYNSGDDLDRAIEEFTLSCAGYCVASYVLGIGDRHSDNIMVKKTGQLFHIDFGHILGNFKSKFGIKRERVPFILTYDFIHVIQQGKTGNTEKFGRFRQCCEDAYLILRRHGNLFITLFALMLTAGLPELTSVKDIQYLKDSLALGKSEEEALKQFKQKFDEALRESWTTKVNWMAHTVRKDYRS
Chain of PIK3CD (Human) (O00329 whole entry, looked up): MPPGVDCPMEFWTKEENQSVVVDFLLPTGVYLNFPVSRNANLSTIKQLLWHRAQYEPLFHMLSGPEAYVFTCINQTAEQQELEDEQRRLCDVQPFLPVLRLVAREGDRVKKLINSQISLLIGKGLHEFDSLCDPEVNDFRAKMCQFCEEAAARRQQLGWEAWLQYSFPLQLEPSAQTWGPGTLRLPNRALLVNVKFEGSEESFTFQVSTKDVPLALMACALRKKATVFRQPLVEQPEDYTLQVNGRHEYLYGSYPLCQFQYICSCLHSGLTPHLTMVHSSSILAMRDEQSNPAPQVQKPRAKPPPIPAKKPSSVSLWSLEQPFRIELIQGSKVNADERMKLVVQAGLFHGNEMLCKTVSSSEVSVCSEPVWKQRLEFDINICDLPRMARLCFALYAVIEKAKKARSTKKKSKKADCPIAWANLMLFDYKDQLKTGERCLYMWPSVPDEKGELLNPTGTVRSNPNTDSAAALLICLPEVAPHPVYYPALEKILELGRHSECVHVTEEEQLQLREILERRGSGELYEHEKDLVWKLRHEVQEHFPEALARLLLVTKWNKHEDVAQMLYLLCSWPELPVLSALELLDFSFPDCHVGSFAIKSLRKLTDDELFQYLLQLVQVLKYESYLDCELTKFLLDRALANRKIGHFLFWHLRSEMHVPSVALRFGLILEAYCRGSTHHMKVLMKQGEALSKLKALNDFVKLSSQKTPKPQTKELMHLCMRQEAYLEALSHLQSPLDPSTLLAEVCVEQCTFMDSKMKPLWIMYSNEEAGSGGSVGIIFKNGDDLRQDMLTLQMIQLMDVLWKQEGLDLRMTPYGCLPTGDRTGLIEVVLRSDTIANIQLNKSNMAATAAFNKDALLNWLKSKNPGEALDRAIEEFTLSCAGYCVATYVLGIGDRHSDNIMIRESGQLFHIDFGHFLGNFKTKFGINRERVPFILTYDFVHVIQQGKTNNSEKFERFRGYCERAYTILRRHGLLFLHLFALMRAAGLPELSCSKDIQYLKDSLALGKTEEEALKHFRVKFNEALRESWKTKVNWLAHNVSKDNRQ
Chain of PIK3CG (human) (P48736 whole entry, looked up): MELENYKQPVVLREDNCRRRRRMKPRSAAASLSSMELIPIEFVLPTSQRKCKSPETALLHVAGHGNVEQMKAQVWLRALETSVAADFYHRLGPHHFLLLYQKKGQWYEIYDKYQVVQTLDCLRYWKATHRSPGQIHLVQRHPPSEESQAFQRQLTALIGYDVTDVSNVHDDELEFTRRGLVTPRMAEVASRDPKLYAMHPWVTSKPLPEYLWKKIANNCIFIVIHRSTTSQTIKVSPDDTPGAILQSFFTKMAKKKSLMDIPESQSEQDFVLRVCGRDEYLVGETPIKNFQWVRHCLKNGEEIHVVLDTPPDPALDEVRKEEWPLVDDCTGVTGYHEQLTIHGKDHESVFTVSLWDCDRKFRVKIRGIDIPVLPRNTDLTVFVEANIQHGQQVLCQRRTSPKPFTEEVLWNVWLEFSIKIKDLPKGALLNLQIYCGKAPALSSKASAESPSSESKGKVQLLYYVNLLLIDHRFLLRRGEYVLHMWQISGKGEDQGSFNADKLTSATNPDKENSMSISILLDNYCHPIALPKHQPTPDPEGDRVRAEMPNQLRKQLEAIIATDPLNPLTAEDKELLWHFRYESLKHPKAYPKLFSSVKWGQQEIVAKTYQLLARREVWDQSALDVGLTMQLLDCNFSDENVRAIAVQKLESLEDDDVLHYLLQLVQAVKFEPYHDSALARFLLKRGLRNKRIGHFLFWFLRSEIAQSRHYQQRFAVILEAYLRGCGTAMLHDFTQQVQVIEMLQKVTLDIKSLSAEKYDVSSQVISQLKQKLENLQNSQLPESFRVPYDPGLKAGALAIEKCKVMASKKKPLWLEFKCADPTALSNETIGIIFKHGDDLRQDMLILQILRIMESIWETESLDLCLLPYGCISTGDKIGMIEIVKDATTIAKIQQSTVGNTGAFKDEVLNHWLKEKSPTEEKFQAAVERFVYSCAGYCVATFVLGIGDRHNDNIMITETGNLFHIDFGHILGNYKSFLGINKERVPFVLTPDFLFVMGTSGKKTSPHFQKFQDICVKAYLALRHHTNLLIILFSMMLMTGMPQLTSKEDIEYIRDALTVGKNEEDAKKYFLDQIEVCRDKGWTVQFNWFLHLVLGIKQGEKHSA

For `C[C@H](NC(=O)c1c(N)nn2cccnc12)c1cc2cccc(C#CC3CCOC3)c2c(=O)n1-c1ccccc1` (stereo not given in full), the IC50 lay within 5 to 10 µM in test [1], 5 to 10 µM in test [2], 0.001 to 0.1 µM in test [3] and 0.1 to 0.5 µM in test [4].
Consider `C[C@H](NC(=O)c1c(N)nn2cccnc12)c1cc2cccc(C#Cc3cccnc3)c2c(=O)n1-c1ccccc1`, for which the IC50 in test [1] is 5 to 10 µM; in test [2] it was 5 to 10 µM; in test [3], 0.1 to 0.5 µM; in test [4], 0.1 to 0.5 µM.
For the compound `CCOC(C#Cc1cccc2cc([C@H](C)NC(=O)c3c(N)nn4cccnc34)n(-c3ccccc3)c(=O)c12)OCC`, the IC50 in test [1] was in the range of 5 to 10 µM; in test [2], 5 to 10 µM; in test [3], 0.5 to 1 µM; in test [4] it was 0.5 to 1 µM.
Consider `Cc1nc(C#Cc2cccc3nc([C@H](C)NC(=O)c4c(N)nn5cccnc45)n(-c4ccccc4)c(=O)c23)cs1`, for which the IC50 was 5 to 10 µM in test [1], 5 to 10 µM in test [2], 0.001 to 0.1 µM in test [3] and 0.5 to 1 µM in test [4].
As to `C[C@H](NC(=O)c1c(N)nn2cccnc12)c1cc2cccc(C#CC(F)(F)F)c2c(=O)n1-c1ccccc1`, the IC50 in test [1] was 5 to 10 µM; in test [2], 5 to 10 µM; in test [3] it was 1 to 5 µM; in test [4], 0.5 to 1 µM.
For the compound `C[C@H](NC(=O)c1c(N)nn2cccnc12)c1cc2cccc(C#Cc3cncs3)c2c(=O)n1-c1ccccc1`, the IC50 is 5 to 10 µM in test [1], 5 to 10 µM in test [2], 0.1 to 0.5 µM in test [3] and 0.1 to 0.5 µM in test [4].
For the compound `C[C@H](NC(=O)c1c(N)nn2cccnc12)c1cc2cccc(C#Cc3cnn(C)c3)c2c(=O)n1-c1ccc(F)c(F)c1`, the results for the IC50 in test [1], in test [2] and in test [3] were 5 to 10 µM, 5 to 10 µM and 0.1 to 0.5 µM, respectively.
Regarding `Cc1ncc(C#Cc2cccc3cc([C@H](C)NC(=O)c4c(N)nn5cccnc45)n(-c4ccccc4)c(=O)c23)s1`, the IC50 fell in the range of 5 to 10 µM in test [1], 5 to 10 µM in test [2], 0.1 to 0.5 µM in test [3] and 0.1 to 0.5 µM in test [4].
With `C[C@H](NC(=O)c1c(N)nn2cccnc12)c1cc2cccc(C#C[C@@H](C)O)c2c(=O)n1-c1ccccc1`, the IC50 in test [1] is 5 to 10 µM; in test [2] it was 0.5 to 1 µM; in test [3], 0.001 to 0.1 µM; in test [4] it was 0.1 to 0.5 µM.
As for `C[C@H](NC(=O)c1c(N)nn2cccnc12)c1cc2cccc(C#CC3CCN(S(C)(=O)=O)CC3)c2c(=O)n1-c1ccccc1`, the IC50 lay in the range of 5 to 10 µM in test [1], 5 to 10 µM in test [2], 0.5 to 1 µM in test [3] and 0.5 to 1 µM in test [4].
Take `C[C@H](NC(=O)c1c(N)nn2cccnc12)c1cc2cccc(C#CC3CCCC3)c2c(=O)n1-c1ccccc1`: the half-inhibitory concentration (IC50) in test [1] lay within 5 to 10 µM; in test [2], 5 to 10 µM; in test [3], 1 to 5 µM; in test [4], 1 to 10 µM.
For `C[C@H](NC(=O)c1c(N)nn2cccnc12)c1cc2cccc(C#Cc3cscn3)c2c(=O)n1-c1ccccc1`, the IC50 in test [1] lay in the range of 1 to 5 µM; in test [2] it was 1 to 5 µM; in test [3], 0.001 to 0.1 µM; in test [4], 0.1 to 0.5 µM.
With `COC(C)C#Cc1cccc2cc([C@H](C)NC(=O)c3c(N)nn4cccnc34)n(-c3ccccc3)c(=O)c12` (stereo not given in full), the IC50 in test [1] was 5 to 10 µM; in test [2], 5 to 10 µM; in test [3], 0.1 to 0.5 µM; in test [4] it was 1 to 10 µM.
On to `Cc1cc(C)n2nc(N)c(C(=O)N[C@@H](C)c3cc4cccc(C#Cc5cnn(C)c5)c4c(=O)n3-c3ccccc3)c2n1`, for which the IC50 fell in the range of 5 to 10 µM in test [1], 5 to 10 µM in test [2] and 0.1 to 0.5 µM in test [3].
Consider `C[C@H](NC(=O)c1c(N)nn2cccnc12)c1cc2cccc(C#Cc3cocn3)c2c(=O)n1-c1ccccc1`, for which the IC50 lay within 1 to 5 µM in test [1], 1 to 5 µM in test [2], 0.001 to 0.1 µM in test [3] and 0.1 to 0.5 µM in test [4].
`Cc1nc(C#Cc2cccc3cc([C@H](C)NC(=O)c4c(N)nn5cccnc45)n(-c4ccccc4)c(=O)c23)cs1`: the IC50 in test [1] lay in the range of 5 to 10 µM; in test [2], 5 to 10 µM; in test [3], 0.001 to 0.1 µM; in test [4], 0.1 to 0.5 µM.
In the case of `C[C@H](NC(=O)c1c(N)nn2cccnc12)c1cc2cccc(C#Cc3cc[nH]c(=O)c3)c2c(=O)n1-c1ccccc1`, the IC50 in test [1] is 5 to 10 µM; in test [2] it was 5 to 10 µM; in test [3], 0.1 to 0.5 µM; in test [4] it was 0.1 to 0.5 µM.
Take `Cc1nn(C)c(C)c1C#Cc1cccc2cc([C@H](C)NC(=O)c3c(N)nn4cccnc34)n(-c3ccccc3)c(=O)c12`: the IC50 was 5 to 10 µM in test [1], 5 to 10 µM in test [2], 1 to 5 µM in test [3] and 1 to 10 µM in test [4].
For the compound `COCC#Cc1cccc2cc([C@H](C)NC(=O)c3c(N)nn4cccnc34)n(-c3ccccc3)c(=O)c12`, the IC50 in test [1] is 1 to 5 µM; in test [2] it was 1 to 5 µM; in test [3], 0.001 to 0.1 µM; in test [4], 0.1 to 0.5 µM.
In the case of `Cc1c(C#Cc2cccc3cc([C@H](C)NC(=O)c4c(N)nn5cccnc45)n(-c4ccccc4)c(=O)c23)cnn1C`, the IC50 was in the range of 5 to 10 µM in test [1], 5 to 10 µM in test [2], 0.1 to 0.5 µM in test [3] and 0.5 to 1 µM in test [4].
In the case of `C[C@H](NC(=O)c1c(N)nn2cccnc12)c1cc2cccc(C#Cc3cnn(C)c3)c2c(=O)n1C1CCCCC1`, the values for the IC50 in test [1], in test [2] and in test [3] were 5 to 10 µM, 5 to 10 µM and 1 to 5 µM, respectively.
As for `Cn1cc(C#Cc2cccc3cc(CNC(=O)c4c(N)nn5cccnc45)n(-c4ccccc4)c(=O)c23)cn1`, the figures for the IC50 in test [1], in test [2] and in test [3] were 5 to 10 µM, 5 to 10 µM and 1 to 5 µM, respectively.
Turning to `C[C@H](NC(=O)c1c(N)nn2cccnc12)c1cc2cccc(C#Cc3cnn(C)c3)c2c(=O)n1-c1cccc(F)c1`, the IC50 lay within 5 to 10 µM in test [1], 5 to 10 µM in test [2] and 0.001 to 0.1 µM in test [3].
Turning to `Cc1cnc(C(=O)N[C@@H](C)c2cc3cccc(C#Cc4cnn(C)c4)c3c(=O)n2-c2ccccc2)c(N)n1`, the IC50 fell in the range of 5 to 10 µM in test [1], 5 to 10 µM in test [2], 1 to 5 µM in test [3] and 1 to 10 µM in test [4].
Regarding `Cc1ccn2nc(N)c(C(=O)N[C@@H](C)c3cc4cccc(C#Cc5cnn(C)c5)c4c(=O)n3-c3ccccc3)c2n1`, the IC50 in test [1] lay within 1 to 5 µM; in test [2], 5 to 10 µM; in test [3], 0.001 to 0.1 µM.
With `Cc1nnc(C#Cc2cccc3cc([C@H](C)NC(=O)c4c(N)nn5cccnc45)n(-c4ccccc4)c(=O)c23)s1`, the IC50 in test [1] fell in the range of 1 to 5 µM; in test [2], 1 to 5 µM; in test [3] it was 0.1 to 0.5 µM.
As for `C[C@H](NC(=O)c1c(N)nn2cccnc12)c1cc2cccc(N)c2c(=O)n1-c1ccccc1`, the values for the IC50 in test [1], in test [2] and in test [3] were 1 to 5 µM, 1 to 5 µM and 0.001 to 0.1 µM, respectively.
`C[C@H](NC(=O)c1c(N)nn2cccnc12)c1cc2cccc(C#Cc3cnn(C)c3)c2c(=O)n1C`: the values for the IC50 in test [1], in test [2] and in test [3] were 0.5 to 1 µM, 5 to 10 µM and 0.1 to 0.5 µM, respectively.
Turning to `CNS(=O)(=O)CCn1c([C@H](C)NC(=O)c2c(N)nn3cccnc23)cc2cccc(C#Cc3cnn(C)c3)c2c1=O`, the results for the IC50 in test [1], in test [2] and in test [3] were 1 to 5 µM, 5 to 10 µM and 0.001 to 0.1 µM, respectively.
For the compound `Cc1ccnc2c(C(=O)N[C@@H](C)c3cc4cccc(C#Cc5cnn(C)c5)c4c(=O)n3-c3ccccc3)cnn12`, the IC50 in test [1] was 5 to 10 µM; in test [2], 5 to 10 µM; in test [3], 0.1 to 0.5 µM.
Consider `Cc1ccc(-n2c([C@H](C)NC(=O)c3c(N)nn4cccnc34)cc3cccc(C#Cc4cnn(C)c4)c3c2=O)cc1`, for which the IC50 in test [1] fell in the range of 5 to 10 µM; in test [2], 5 to 10 µM; in test [3], 0.1 to 0.5 µM.
With `C[C@H](NC(=O)c1c(N)nn2cccnc12)c1cc2cccc(C#Cc3cnn(C)c3)c2c(=O)n1C1CC1`, the IC50 in test [1] lay within 1 to 5 µM; in test [2], 5 to 10 µM; in test [4], 0.1 to 0.5 µM.
On to `C[C@H](NC(=O)c1c(N)nn2cccnc12)c1nc2cccc(C#Cc3cnn(C)c3)c2c(=O)n1-c1ccccc1`, for which the values for the IC50 in test [1], in test [2] and in test [4] were 5 to 10 µM, 5 to 10 µM and 0.1 to 0.5 µM, respectively.
As to `Cc1ccccc1-n1c([C@H](C)NC(=O)c2c(N)nn3cccnc23)cc2cccc(C#Cc3cnn(C)c3)c2c1=O`, the IC50 in test [1] was 5 to 10 µM; in test [2], 5 to 10 µM; in test [3], 0.001 to 0.1 µM.
For the compound `C[C@H](NC(=O)c1c(N)nn2cccnc12)c1cc2cccc(C=Cc3ccccc3)c2c(=O)n1-c1ccccc1`, the IC50 in test [1] is 5 to 10 µM; in test [2] it was 5 to 10 µM; in test [3] it was more than 5 µM.
On to `CC(C)n1c([C@H](C)NC(=O)c2c(N)nn3cccnc23)cc2cccc(C#Cc3cnn(C)c3)c2c1=O`, for which the figures for the IC50 in test [1], in test [2] and in test [3] were 5 to 10 µM, 5 to 10 µM and 0.5 to 1 µM, respectively.
Consider `CC[C@H](NC(=O)c1c(N)nn2cccnc12)c1cc2cccc(C#Cc3cnn(C)c3)c2c(=O)n1-c1ccccc1`, for which the results for the IC50 in test [1], in test [2] and in test [3] were 5 to 10 µM, 5 to 10 µM and 0.001 to 0.1 µM, respectively.
As for `Cc1cccc(-n2c([C@H](C)NC(=O)c3c(N)nn4cccnc34)cc3cccc(C#Cc4cnn(C)c4)c3c2=O)c1`, the IC50 lay in the range of 5 to 10 µM in test [1], 5 to 10 µM in test [2] and 0.1 to 0.5 µM in test [3].
With `C#Cc1cccc2nc([C@H](C)NC(=O)c3nccnc3N)n(-c3ccccc3)c(=O)c12`, the IC50 in test [1] lay in the range of 0.001 to 0.5 µM; in test [2] it was 0.001 to 0.5 µM; in test [3], 0.001 to 0.1 µM.
Regarding `C[C@H](NC(=O)c1c(N)nn2cccnc12)c1cc2cccc(C#Cc3cnn(C)c3)c2c(=O)n1CCS(=O)(=O)N(C)C`, the IC50 in test [1] fell in the range of 1 to 5 µM; in test [2], 5 to 10 µM; in test [3], 0.001 to 0.1 µM.
Regarding `C[C@H](NC(=O)c1c(N)nn2cccnc12)c1cc2cccc(C#Cc3cnn(C)c3)c2c(=O)n1-c1ccc(F)cc1`, the IC50 lay within 5 to 10 µM in test [1], 5 to 10 µM in test [2] and 0.001 to 0.1 µM in test [3].
In the case of `C[C@H](NC(=O)c1c(N)nn2cccnc12)c1cc2cccc(C#CC3CCN(C)CC3)c2c(=O)n1-c1ccccc1`, the IC50 in test [1] lay in the range of 5 to 10 µM; in test [2] it was 5 to 10 µM; in test [3] it was 0.5 to 1 µM.
